PubChem BioAssay AID330 (DTP/NCI, 2004)
Where “and” joins values, the source holds several entries; their conditions need not be identical. Equal values may be shown once. Toxic doses and inconclusive results are not listed.

System: P388 leukemia ip, CD2F1 mice, survival T/C
Experiment: NCI In Vivo Anticancer Drug Screen. Data for tumor model P388 Leukemia (intraperitoneal) in CD2F1 (CDF1) mice
Conditions: endpoint: median survival time, higher = longer survival
Method in brief: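 Mice carrying the transplanted tumor received test compound or vehicle. Survival was recorded in each group, and the value is the treated-group measurement divided by that of the vehicle-treated control group.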

[1] = dose: 50.0 mg/kg/injection, schedule: Q01DX005 (ip), vehicle: Klucel (hydroxypropylcellulose) (HPC)
[2] = dose: 200.0 mg/kg/injection, schedule: Q01DX005 (ip), vehicle: Klucel (hydroxypropylcellulose) (HPC)
[3] = dose: 50.0 mg/kg/injection, schedule: Q01DX005 (ip), vehicle: saline with Tween-80
[4] = dose: 100.0 mg/kg/injection, schedule: Q01DX005 (ip), vehicle: saline with Tween-80
[5] = dose: 200.0 mg/kg/injection, schedule: Q01DX005 (ip), vehicle: saline with Tween-80
[6] = dose: 12.5 mg/kg/injection, schedule: Q01DX005 (ip), vehicle: saline with Tween-80
[7] = dose: 25.0 mg/kg/injection, schedule: Q01DX005 (ip), vehicle: saline with Tween-80
[8] = dose: 60.0 mg/kg/injection, schedule: Q01DX005 (ip), vehicle: saline with Tween-80
[9] = dose: 120.0 mg/kg/injection, schedule: Q01DX005 (ip), vehicle: saline with Tween-80
[10] = dose: 240.0 mg/kg/injection, schedule: Q01DX005 (ip), vehicle: saline with Tween-80
[11] = dose: 100.0 mg/kg/injection, schedule: Q01DX009 (ip), vehicle: saline with Tween-80
[12] = dose: 200.0 mg/kg/injection, schedule: Q01DX009 (ip), vehicle: saline with Tween-80
[13] = dose: 50.0 mg/kg/injection, schedule: Q01DX009 (ip), vehicle: saline with Tween-80
[14] = dose: 25.0 mg/kg/injection, schedule: Q01DX009 (ip), vehicle: saline with Tween-80
[15] = dose: 100.0 mg/kg/injection, schedule: Q01DX005 (ip), vehicle: Klucel (hydroxypropylcellulose) (HPC)

CC(O)C(C)C(N)C(=O)O (configuration not stated)
T/C (dose: 8.25 mg/kg/injection, schedule: Q01DX005 (ip), vehicle: water): 100 % of control
T/C (dose: 16.5 mg/kg/injection, schedule: Q01DX005 (ip), vehicle: water): 98 % of control
T/C (dose: 33.0 mg/kg/injection, schedule: Q01DX005 (ip), vehicle: water): 100 % of control
T/C (dose: 66.0 mg/kg/injection, schedule: Q01DX005 (ip), vehicle: water): 99 % of control

O=C(NP1(=O)NCc2ccccc2CN1)OC1CCCC1
T/C (dose: 3.12 mg/kg/injection, schedule: Q01DX005 (ip), vehicle: Klucel (hydroxypropylcellulose) (HPC)): 99 % of control and 92 % of control
T/C (dose: 6.25 mg/kg/injection, schedule: Q01DX005 (ip), vehicle: Klucel (hydroxypropylcellulose) (HPC)): 101 % of control and 91 % of control
T/C (dose: 12.5 mg/kg/injection, schedule: Q01DX005 (ip), vehicle: Klucel (hydroxypropylcellulose) (HPC)): 99 % of control and 104 % of control
T/C (dose: 25.0 mg/kg/injection, schedule: Q01DX005 (ip), vehicle: Klucel (hydroxypropylcellulose) (HPC)): 92 % of control and 93 % of control and 98 % of control
T/C [1]: 91 % of control
T/C [2]: 88 % of control

ClC1CC(C(Cl)(Cl)Cl)CCC1C(Cl)(Cl)Cl (configuration not stated)
T/C [3]: 98 % of control
T/C [4]: 96 % of control
T/C [5]: 96 % of control

CCN(CC)CCN1C(=O)c2cccc3c(N)c(OC)cc(c23)C1=O
T/C (dose: 25.0 mg/kg/injection, schedule: Q01DX005 (ip), vehicle: saline): 103 % of control
T/C (dose: 50.0 mg/kg/injection, schedule: Q01DX005 (ip), vehicle: saline): 100 % of control and 97 % of control
T/C (dose: 100.0 mg/kg/injection, schedule: Q01DX005 (ip), vehicle: saline): 100 % of control and 104 % of control

CC1COCC(C)OC(C)COCC(C)OC(=O)COCC(=O)O1 (configuration not stated)
T/C (dose: 100.0 mg/kg/injection, schedule: Q04DX003 (ip), vehicle: Klucel (hydroxypropylcellulose) (HPC)): 104 % of control
T/C (dose: 200.0 mg/kg/injection, schedule: Q04DX003 (ip), vehicle: Klucel (hydroxypropylcellulose) (HPC)): 110 % of control
T/C (dose: 400.0 mg/kg/injection, schedule: Q04DX003 (ip), vehicle: Klucel (hydroxypropylcellulose) (HPC)): 103 % of control

O=C(O)/C(Cl)=C(Cl)\C=N\Nc1ccccc1
T/C (dose: 25.0 mg/kg/injection, schedule: Q04DX002 (ip), vehicle: saline with Tween-80): 100 % of control
T/C (dose: 50.0 mg/kg/injection, schedule: Q04DX002 (ip), vehicle: saline with Tween-80): 102 % of control
T/C (dose: 100.0 mg/kg/injection, schedule: Q04DX002 (ip), vehicle: saline with Tween-80): 100 % of control

COc1ccc2nc(N/N=C/c3cccc(C)n3)cc(C)c2c1
T/C [6]: 100 % of control
T/C [7]: 96 % of control
T/C [3]: 94 % of control and 95 % of control
T/C [4]: 114 % of control
T/C [5]: 116 % of control

COc1ccc(S(=O)(=O)NNS(=O)(=O)c2ccc(OC)c(OC)c2)cc1OC
T/C [6]: 95 % of control
T/C [7]: 99 % of control
T/C [3]: 94 % of control and 96 % of control

Cc1cc(NC(=O)Nc2ccc(F)cc2)no1
T/C [8]: 94 % of control
T/C [9]: 93 % of control
T/C [10]: 96 % of control

CCCC1C(CC)C=C(CC)C(O)C1(CC)CO (configuration not stated)
T/C [3]: 97 % of control
T/C [4]: 97 % of control
T/C [5]: 97 % of control

COC(=O)C1=C(C(=O)OC)N2c3ccccc3-n3c(-c4ccccc4)cc(OC)c3C2(C)C(C(=O)OC)=C1C(=O)OC (configuration not stated)
T/C (dose: 100.0 mg/kg/injection, schedule: Q01DX001 (ip), vehicle: saline with Tween-80): 99 % of control
T/C (dose: 200.0 mg/kg/injection, schedule: Q01DX001 (ip), vehicle: saline with Tween-80): 99 % of control
T/C (dose: 400.0 mg/kg/injection, schedule: Q01DX001 (ip), vehicle: saline with Tween-80): 92 % of control

O=S(=O)(O)CCc1nn[nH]n1
T/C (dose: 100.0 mg/kg/injection, schedule: Q01DX001 (ip), vehicle: saline): 100 % of control
T/C (dose: 200.0 mg/kg/injection, schedule: Q01DX001 (ip), vehicle: saline): 101 % of control
T/C (dose: 400.0 mg/kg/injection, schedule: Q01DX001 (ip), vehicle: saline): 101 % of control

CCOC(C)c1nc2c([nH]1)c(=O)n(C)c(=O)n2C (configuration not stated)
T/C (dose: 60.0 mg/kg/injection, schedule: Q01DX005 (ip), vehicle: saline): 99 % of control
T/C (dose: 120.0 mg/kg/injection, schedule: Q01DX005 (ip), vehicle: saline): 101 % of control
T/C (dose: 240.0 mg/kg/injection, schedule: Q01DX005 (ip), vehicle: saline): 95 % of control

CC(C)CC(=O)CC(O)(C(F)(F)F)C(F)(F)F
T/C [11]: 109 % of control
T/C [12]: 113 % of control

CCOC(=O)c1ccc(NCCC(C)=O)cc1
T/C [13]: 91 % of control
T/C [11]: 86 % of control
T/C [12]: 91 % of control
T/C (dose: 400.0 mg/kg/injection, schedule: Q01DX009 (ip), vehicle: saline with Tween-80): 95 % of control

O=C1c2ccccc2C(=O)N1CBr
T/C (dose: 12.5 mg/kg/injection, schedule: Q01DX009 (ip), vehicle: saline with Tween-80): 109 % of control
T/C [14]: 104 % of control
T/C [13]: 100 % of control

CCCCNCCC(SS)c1ccc(Cl)cc1 (configuration not stated)
T/C [14]: 110 % of control
T/C [13]: 100 % of control
T/C [11]: 100 % of control

Oc1ccc(O)c(-n2nc3ccccc3n2)c1
T/C [8]: 104 % of control
T/C [9]: 103 % of control
T/C [10]: 100 % of control

ClC1c2ccccc2-c2nsnc2C1Cl (configuration not stated)
T/C [14]: 107 % of control
T/C [13]: 90 % of control
T/C [11]: 90 % of control
T/C [12]: 100 % of control

Nc1ncnc2c1c1c(=O)[nH]cnc1n2C1OC(CO)C(O)C1O (configuration not stated)
T/C (dose: 3.13 mg/kg/injection, schedule: Q01DX009 (ip), vehicle: water): 107 % of control
T/C (dose: 6.25 mg/kg/injection, schedule: Q01DX009 (ip), vehicle: water): 113 % of control
T/C (dose: 12.5 mg/kg/injection, schedule: Q01DX009 (ip), vehicle: water): 114 % of control
T/C (dose: 50.0 mg/kg/injection, schedule: Q01DX009 (ip), vehicle: water): 116 % of control

O=[N+]([O-])c1ccc(-n2nnc3ccccc32)nc1
T/C (dose: 50.0 mg/kg/injection, schedule: Q01DX009 (ip), vehicle: saline): 108 % of control
T/C (dose: 100.0 mg/kg/injection, schedule: Q01DX009 (ip), vehicle: saline): 99 % of control
T/C (dose: 200.0 mg/kg/injection, schedule: Q01DX009 (ip), vehicle: saline): 99 % of control

COc1ccc(-n2c(N)c(C#N)c3c(c2=S)CCCC3)cc1
T/C (dose: 50.0 mg/kg/injection, schedule: Q01DX005 (ip), vehicle: Klucel + Tween-80): 100 % of control
T/C (dose: 100.0 mg/kg/injection, schedule: Q01DX005 (ip), vehicle: Klucel + Tween-80): 104 % of control
T/C (dose: 200.0 mg/kg/injection, schedule: Q01DX005 (ip), vehicle: Klucel + Tween-80): 95 % of control

CN(C)CCCN(c1ccccc1)c1ccccc1
T/C [1]: 98 % of control
T/C [15]: 98 % of control
T/C [2]: 98 % of control

c1cnc2ncncc2n1
T/C [13]: 104 % of control and 111 % of control
T/C [11]: 120 % of control
T/C [12]: 150 % of control

NS(=O)(=O)c1ccc(Nc2c3ccccc3nc3ncccc23)cc1
T/C (dose: 7.5 mg/kg/injection, schedule: Q01DX005 (ip), vehicle: saline with Tween-80): 92 % of control
T/C (dose: 15.0 mg/kg/injection, schedule: Q01DX005 (ip), vehicle: saline with Tween-80): 91 % of control
T/C (dose: 30.0 mg/kg/injection, schedule: Q01DX005 (ip), vehicle: saline with Tween-80): 92 % of control

COC(=O)CC1C(C)(C)C(=O)C2CC3=C4CC(=O)OC(c5ccoc5)C4(C)CCC3C1(C)C2=O (configuration not stated)
T/C [8]: 97 % of control
T/C [9]: 92 % of control
T/C [10]: 89 % of control

Cc1ccc(S(=O)(=O)C(C#N)(Cc2c[nH]c3ccccc23)Cc2c[nH]c3ccccc23)cc1
T/C [1]: 107 % of control
T/C [15]: 101 % of control
T/C [2]: 98 % of control

NC(=S)COc1ccccc1
T/C [13]: 105 % of control
T/C [11]: 101 % of control
T/C [12]: 105 % of control
